Laboratory results as given in patent publication US20060069132A1, “Azolecarboxamide herbicides” (priority 2004, published 2006).

Key:
broadleaf signalgrass = test: Test E pre-/postemergence herbicide test; format: in vivo, Brachiaria platyphylla
Description: (§1) Seeds of plant species selected from bipinnate beggarticks (Bidens bipinnata L.), hairy beggarticks (Bidens radiata Thuill.), bermudagrass (Cynodon dactylon (L.) Pers.), Surinam grass (Urochloa decumbens (Staph) R. D. Webster, previously named Brachiaria decumbens Stapf), large crabgrass (Digitaria sanguinalis (L.) Scop.), green foxtail (Setaria viridis (L.) P. Beauv.), goosegrass (Eleusine indica (L.) Gaertn.), johnsongrass (Sorghum halepense (L.) Pers.), kochia (Kochia scoparia (L.) Schrad.), pitted morningglory (Ipomoea lacunosa L.), purple nutsedge (Cyperus rotundus L.), common ragweed (Ambrosia elatior L.), mustard (Brassica nigra (L.) W. D. J. Koch), guineagrass (Panicum maximum Jacq.), dallisgrass (Paspalum dilatatum Poir.), barnyardgrass (Echinochloa crus-galli (L). P. Beauv.), southern sandbur (Cenchrus echinatus L.), common sowthistle (Sonchus oleraceous L.), prickly sida (Sida spinosa L.), Italian ryegrass (Lolium multiflorum Lam.), common purslane (Portulaca oleracea L.), broadleaf signalgrass (Brachiaria platyphylla (Griseb.) Nash), common groundsel (Senecio vulgaris L.), common chickweed (Stellaria media (L.) Vill/Cyr.), tropical spiderwort (Commelina benghalensis L.), annual bluegrass (Poa annua L.), downy bromegrass (Bromus tectorum L.), itchgrass (Rottboellia cochinchinensis (L.) L.f.), quackgrass (Elytrigia repens (L.) Nevski), Canada horseweed (Erigeron Canadensis L.), field bindweed (Convolvulus arvensis L.), spotted spurge (Euphorbia maculata L.), common mallow (Malva sylvestris (=s silvestris) L.), and Russian thistle (Salsola kali L. ssp. Ruthenica (Iljin) Soo) were planted and treated preemergence with test chemicals formulated in a non-phytotoxic solvent mixture which included a surfactant.
(§2) At the same time, plants selected from these weed species were treated with postemergence applications of some of the test chemicals formulated in the same manner. Plants ranged in height from 2 to 18 cm (1- to 4-leaf stage) for postemergence treatments. Treated plants and controls were maintained in a greenhouse for 12 to 14 days, after which time all species were compared to controls and visually evaluated. Plant response ratings, summarized in Table E, are based on a scale of 0 to 100 where 0 is no effect and 100 is complete control. A dash (-) response means no test result.

barnyardgrass = test: Test C flooded paddy test; format: in vivo, Echinochloa crus-galli; conditions: for Plant response rating, Barnyardgrass: 500 g ai/ha, visual rating after 12 to 14 days
Summary of the method: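 Scoring by eye, 12–14 days post-treatment, greenhouse-held plants vs. controls; 0 no effect, 100 complete control. Sprayed at 1–4 leaves (2–18 cm); paddy barnyardgrass at 2 leaves, flooded.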

common ragweed = test: Test E pre-/postemergence herbicide test; format: in vivo, Ambrosia elatior
Description: as §1, §2

downy bromegrass = test: Test E pre-/postemergence herbicide test; format: in vivo, Bromus tectorum
Description: as §1, §2

tropical spiderwort = test: Test E pre-/postemergence herbicide test; format: in vivo, Commelina benghalensis
Description: as §1, §2

johnsongrass = test: Test C pre-/postemergence herbicide test; format: in vivo, Sorghum halepense; conditions: preemergence
Summary of the method: (§3)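 Visual injury scores run from 0 (no effect) to 100 (complete control), assessed relative to untreated controls 12 to 14 days after treatment in the greenhouse. Chemicals were formulated in a non-phytotoxic solvent mixture with surfactant and applied to soil after planting or to emerged plants at the 1- to 4-leaf stage.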

eastern black nightshade = test: Test C pre-/postemergence herbicide test; format: in vivo, Solanum ptycanthum; conditions: preemergence
Summary of the method: as §3

[1] = Postemergence, 500 g ai/ha, scale 0 to 100
[2] = Postemergence, 250 g ai/ha, scale 0 to 100
[3] = Preemergence, 125 g ai/ha, scale 0 to 100
[4] = Preemergence, 250 g ai/ha, scale 0 (no effect) to 100 (complete control)
[5] = Preemergence, 375 g ai/ha, scale 0 (no effect) to 100 (complete control)
[6] = Preemergence, 500 g ai/ha, scale 0 (no effect) to 100 (complete control)
[7] = postemergence, 125 g ai/ha, scale 0 to 100
[8] = postemergence, 62 g ai/ha, scale 0 to 100
[9] = 62 g ai/ha, scale 0 to 100 (0 no effect, 100 complete control)
[10] = 125 g ai/ha, scale 0 to 100 (0 no effect, 100 complete control)
[11] = 250 g ai/ha, scale of 0 to 100, 0 is no effect, 100 is complete control
[12] = scale 0 to 100 (0 no effect, 100 complete control)
[13] = 125 g ai/ha, scale 0 (no effect) to 100 (complete control), visual, 12 to 14 days
[14] = 500 g ai/ha, scale 0 to 100 (0 no effect, 100 complete control), visual, 12 to 14 days

SMILES: CCn1nc(C(C)(C)C)cc1C(=O)Nc1cc(C(=S)N(C)C)ccc1F [Compound 294]
- Plant response rating, Signalgrass (broadleaf signalgrass; [1]): 70
- Plant response rating, Signalgrass (broadleaf signalgrass; [2]): 50
- Plant response rating, Signalgrass (broadleaf signalgrass; [3]): 50
- Plant response rating, Signalgrass (broadleaf signalgrass; [4]): 70
- Plant response rating, Signalgrass (broadleaf signalgrass; [5]): 80
- Plant response rating, Signalgrass (broadleaf signalgrass; [6]): 80
- Plant response rating, Signalgrass (broadleaf signalgrass; [7]): 30
- Plant response rating, Signalgrass (broadleaf signalgrass; [8]): 30
- Barnyardgrass plant response rating (barnyardgrass; [9]): 75
- Barnyardgrass plant response rating (barnyardgrass; [10]): 90
- Barnyardgrass plant response rating (barnyardgrass; [11]): 95
- Plant response rating, Barnyardgrass (barnyardgrass; [12]): 100
- Plant response rating, Ragweed (common ragweed; [1]): 80
- Plant response rating, Ragweed (common ragweed; [2]): 70
- Plant response rating, Ragweed (common ragweed; [3]): 75
- Plant response rating, Ragweed (common ragweed; [4]): 85
- Plant response rating, Ragweed (common ragweed; [5]): 100
- Plant response rating, Ragweed (common ragweed; [6]): 100
- Plant response rating, Ragweed (common ragweed; [7]): 60
- Plant response rating, Ragweed (common ragweed; [8]): 30
- Plant response rating, Bromegrass, Downy (downy bromegrass; [1]): 95
- Plant response rating, Bromegrass, Downy (downy bromegrass; [2]): 85
- Plant response rating, Bromegrass, Downy (downy bromegrass; [3]): 80
- Plant response rating, Bromegrass, Downy (downy bromegrass; [4]): 100
- Plant response rating, Bromegrass, Downy (downy bromegrass; [5]): 100
- Plant response rating, Bromegrass, Downy (downy bromegrass; [6]): 100
- Plant response rating, Bromegrass, Downy (downy bromegrass; [7]): 75
- Plant response rating, Bromegrass, Downy (downy bromegrass; [8]): 60
- Plant response rating, Spiderwort (tropical spiderwort; [1]): 90
- Plant response rating, Spiderwort (tropical spiderwort; [2]): 70
- Plant response rating, Spiderwort (tropical spiderwort; [4]): 85
- Plant response rating, Spiderwort (tropical spiderwort; [5]): 90
- Plant response rating, Spiderwort (tropical spiderwort; [6]): 95
- Plant response rating, Spiderwort (tropical spiderwort; [7]): 30
- Plant response rating, Spiderwort (tropical spiderwort; [8]): 20
- Plant response rating, Johnsongrass (johnsongrass; 62 g ai/ha, scale 0 to 100): 80
- Plant response rating, Johnsongrass (johnsongrass; [13]): 100
- Plant response rating, Johnsongrass (johnsongrass; 250 g ai/ha, scale 0-100): 100
- Plant response rating, Johnsongrass (johnsongrass; [14]): 100
- Plant response rating, Nightshade (eastern black nightshade; 62 g ai/ha, scale 0 to 100): 100
- Plant response rating, Nightshade (eastern black nightshade; [13]): 100
- Plant response rating, Nightshade (eastern black nightshade; 250 g ai/ha, scale 0-100): 100
- Plant response rating, Nightshade (eastern black nightshade; [14]): 100

SMILES: CCc1nn(C(C)(C)C)cc1C(=O)Nc1cc(C(=O)N(C)C)ccn1 [Compound 293]
- Plant response rating, Signalgrass (broadleaf signalgrass; [3]): 50
- Plant response rating, Signalgrass (broadleaf signalgrass; [4]): 95
- Plant response rating, Signalgrass (broadleaf signalgrass; [5]): 95
- Plant response rating, Signalgrass (broadleaf signalgrass; [6]): 100
- Barnyardgrass plant response rating (barnyardgrass; [9]): 0
- Barnyardgrass plant response rating (barnyardgrass; [10]): 20
- Barnyardgrass plant response rating (barnyardgrass; [11]): 70
- Plant response rating, Barnyardgrass (barnyardgrass; [12]): 80
- Plant response rating, Ragweed (common ragweed; [3]): 50
- Plant response rating, Ragweed (common ragweed; [4]): 70
- Plant response rating, Ragweed (common ragweed; [5]): 100
- Plant response rating, Ragweed (common ragweed; [6]): 100
- Plant response rating, Bromegrass, Downy (downy bromegrass; [4]): 80
- Plant response rating, Bromegrass, Downy (downy bromegrass; [6]): 80
- Plant response rating, Spiderwort (tropical spiderwort; [3]): 60
- Plant response rating, Spiderwort (tropical spiderwort; [4]): 80
- Plant response rating, Spiderwort (tropical spiderwort; [5]): 80
- Plant response rating, Spiderwort (tropical spiderwort; [6]): 90
- Plant response rating, Johnsongrass (johnsongrass; 62 g ai/ha, scale 0 to 100): 65
- Plant response rating, Johnsongrass (johnsongrass; [13]): 95
- Plant response rating, Johnsongrass (johnsongrass; 250 g ai/ha, scale 0-100): 100
- Plant response rating, Johnsongrass (johnsongrass; [14]): 100
- Plant response rating, Nightshade (eastern black nightshade; 62 g ai/ha, scale 0 to 100): 65
- Plant response rating, Nightshade (eastern black nightshade; [13]): 100
- Plant response rating, Nightshade (eastern black nightshade; 250 g ai/ha, scale 0-100): 100
- Plant response rating, Nightshade (eastern black nightshade; [14]): 100
